# Square brackets hold non-standard residues; d marks the D form. Peptide text beside a SMILES is read from it. ξ: configuration not given here. ξαMeGly(pent-4-enyl) = C=CCCCC(C)(N)C(=O)O
# Experiments:
# [1] = tested on: P. aeruginosa ATCC 27853; assay type: cell-based, Pseudomonas aeruginosa; conditions: ATCC 27853, 18 h
# Protocol: The minimum inhibitory concentration (MIC) of the Feleucin-K3 analogs was tested by the broth microdilution method. Sensitive bacteria and drug-resistant bacteria were diluted to 1 × 10^6 CFU/mL, according to the McFarland standards. Bacterial suspension and peptide solutions (8–128 μg/mL) were incubated at 37 °C for 18 h. The minimum concentration without obvious bacterial growth was the MIC of the peptides. The stability of the analogs in a physiological salt environment was also investigated. In brief, salt powder (450-mM NaCl) was dissolved in deionized water, and the following investigational steps were the same as those described before. The above steps were repeated several times, until the same value was obtained three times.
# [2] = tested on: A. baumannii 51243; assay type: cell-based, Acinetobacter baumannii; conditions: 51243, 18 h
# Outline: (§1)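 Each strain is diluted to 1 × 10^6 CFU/mL and incubated with 8–128 μg/mL peptide at 37 °C for 18 h. No obvious growth defines the MIC, repeated to three matching results; a 450-mM NaCl condition probes salt stability.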
# [3] = tested on: A. baumannii 91944; assay type: cell-based, Acinetobacter baumannii; conditions: 91944, 18 h
# Outline: as §1
# [4] = tested on: A. baumannii 91810; assay type: cell-based, Acinetobacter baumannii; conditions: 91810, 18 h
# Outline: as §1
# [5] = tested on: A. baumannii 98110; assay type: cell-based, Acinetobacter baumannii; conditions: 98110, 18 h
# Outline: as §1
# [6] = tested on: A. baumannii 9896; assay type: cell-based, Acinetobacter baumannii; conditions: 9896, 18 h
# Outline: as §1
# [7] = tested on: A. baumannii 97830; assay type: cell-based, Acinetobacter baumannii; conditions: 97830, 18 h
# Outline: as §1
# [8] = tested on: A. baumannii 91869; assay type: cell-based, Acinetobacter baumannii; conditions: 91869, 18 h
# Outline: as §1
# [9] = tested on: A. baumannii 5444; assay type: cell-based, Acinetobacter baumannii; conditions: 5444, 18 h
# Outline: as §1
# [10] = tested on: A. baumannii 8309; assay type: cell-based, Acinetobacter baumannii; conditions: 8309, 18 h
# Outline: as §1
# [11] = tested on: A. baumannii ATCC 19606; assay type: cell-based, Acinetobacter baumannii; conditions: ATCC 19606, 24 h
# Protocol: The antibiofilm activity of the peptides was determined according to the previously described methods. Strains (final concentration of 5 × 10^5 CFU/mL) and peptides (4–128 μg/mL) were incubated for 24 h at 37 °C. Biofilm cells were cleaned with 0.01-M PBS and fixed with methanol. Crystal violet (0.1%, HopeBiol, Qingdao, China) was used to stain the biofilm cells for 10 min. After washing with water, 95% ethanol was finally added, and the optical density at 595 nm was measured with a microplate reader (Flex Station 3; Laguna Hills, CA, USA).
SMILES,"MIC, P. aeruginosa ATCC 27853 [1]","MIC, A. baumannii 51243 [2]","MIC, A. baumannii 91944 [3]","MIC, A. baumannii 91810 [4]","MIC, A. baumannii 98110 [5]","MIC, A. baumannii 9896 [6]","MIC, A. baumannii 97830 [7]","MIC, A. baumannii 91869 [8]","MIC, A. baumannii 5444 [9]","MIC, A. baumannii 8309 [10]","MBIC50, A. baumannii ATCC 19606 [11]","MBIC90, A. baumannii ATCC 19606 [11]"
C=CCCCC(C)(N)C(=O)N[C@@H](CC(C)C)C(=O)N[C@@H](CCCCN)C(=O)N[C@@H](CC(C)C)C(=O)N[C@@H](CC(C)C)C(=O)N[C@@H](CCCCN)C(=O)N[C@@H](CCCCN)C(=O)N[C@@H](CC(C)C)C(=O)N[C@@H](CC(C)C)C(N)=O (stereo partly drawn) [Feleucin-K65] (H-[ξαMeGly(pent-4-enyl)]LKLLKKLL-NH2),8 mg/L,4 mg/L,4 mg/L,4 mg/L,4 mg/L,4 mg/L,4 mg/L,4 mg/L,4 mg/L,4 mg/L,8 µg/mL,8 µg/mL
C=CCCCC(C)(NC(=O)[C@H](CC(C)C)NC(=O)[C@H](CCCCN)NC(=O)[C@H](CCCCN)NC(=O)[C@H](CC(C)C)NC(=O)[C@H](CC(C)C)NC(=O)[C@H](CCCCN)NC(=O)[C@H](CC(C)C)NC(=O)[C@@H](N)Cc1ccccc1)C(N)=O (stereo partly drawn) [Feleucin-K70] (H-FLKLLKKL[ξαMeGly(pent-4-enyl)]-NH2),8 mg/L,8 mg/L,8 mg/L,8 mg/L,8 mg/L,4 mg/L,8 mg/L,8 mg/L,8 mg/L,8 mg/L,8 µg/mL,16 µg/mL

# Reference: paper PMC8160793, “Potent Antimicrobial and Antibiofilm Activities of Feleucin-K3 Analogs Modified by α-(4-Pentenyl)-Ala against Multidrug-Resistant Bacteria” (Biomolecules, 2021)
